Measurements: ChEMBL document CHEMBL1130799, “Stability of acetal and non acetal-type analogs of artemisinin in simulated stomach acid” (Bioorg Med Chem Lett, 1998)
Values after ≈ are worked out from the molar mass of the structure shown.

Experiments:
[1] = Half life was determined; assay type: ADME; settings: rat
Plasmodium falciparum = test: In vitro antimalarial activity against Plasmodium falciparum; assay type: functional, organism-based

SMILES: CCO[C@H]1O[C@@H]2OC3(C)CCC4[C@H](C)CC[C@@H]([C@H]1C)[C@]42OO3 (single isomer, unassigned)
- half-life [1]: 11 h
- IC50 (Plasmodium falciparum): 0.16 ng/mL (≈ 0.512 nM)

SMILES: C[C@@H]1CC[C@H]2[C@@H](C)C(=O)O[C@@H]3O[C@@]4(C)CC[C@@H]1[C@]32OO4 [ARTEMISININ]
- half-life [1]: 23.5 h

SMILES: C[C@H]1[C@@H](CCCC(=O)O)O[C@@H]2O[C@]3(C)CCC4[C@H](C)CC[C@@H]1[C@]42OO3 (stereo partly specified)
- half-life [1]: 387 h
- IC50 (Plasmodium falciparum): 1.3 ng/mL (≈ 3.67 nM)

SMILES: C[C@@H]1CC[C@H]2[C@@H](C)CO[C@@H]3O[C@]4(C)CCC1[C@]32OO4 (stereo partly specified)
- half-life [1]: 213 h
- IC50 (Plasmodium falciparum): 0.15 ng/mL (≈ 0.559 nM)

SMILES: CCCC[C@H]1O[C@@H]2O[C@]3(C)CC[C@H]4[C@H](C)CC[C@@H]([C@H]1C)[C@@]24OO3
- half-life [1]: 165 h
- IC50 (Plasmodium falciparum): 1.15 ng/mL (≈ 3.54 nM)

SMILES: C[C@H]1[C@@H](OCc2ccc(C(=O)O)cc2)O[C@@H]2OC3(C)CCC4[C@H](C)CC[C@@H]1[C@]42OO3 (single isomer, unassigned)
- half-life [1]: 13.1 h
- IC50 (Plasmodium falciparum): 1.38 ng/mL (≈ 3.3 nM)

SMILES: C[C@H]1[C@@H](Cc2ccccc2)O[C@@H]2O[C@]3(C)CCC4[C@H](C)CC[C@@H]1[C@]42OO3 (stereo partly specified)
- half-life [1]: 286 h
- IC50 (Plasmodium falciparum): < 0.17 ng/mL

SMILES: C[C@H]1[C@@H](O)O[C@@H]2O[C@@]3(C)CC[C@H]4[C@H](C)CC[C@@H]1[C@@]24OO3 [ARTENIMOL]
- half-life [1]: 17.2 h

SMILES: C[C@H]1[C@@H](CCCCC(=O)O)O[C@@H]2O[C@]3(C)CCC4[C@H](C)CC[C@@H]1[C@]42OO3 (stereo partly specified)
- half-life [1]: 374 h
- IC50 (Plasmodium falciparum): 1.28 ng/mL (≈ 3.47 nM)
